Test results from PMC7751403, “Development of 2-oindolin-3-ylidene-indole-3-carbohydrazide derivatives as novel apoptotic and anti-proliferative agents towards colorectal cancer cells” (Journal of Enzyme Inhibition and Medicinal Chemistry, 2020).
Like-named read-outs stand apart in the source and are kept apart here.

What was measured:
[1] = test system: HT-29 colorectal cancer cell line; experiment: MTT cell viability assay, HT-29 colorectal cancer cells; assay type: cell-based, human
Procedure: (§1) HT29 and SW620 colorectal cancer cell lines and HFF-1 fibroblast (ATCC, Rockville, USA) were used. HT29 cells were cultured and maintained in Dulbecco’s Modified Eagle’s Medium (DMEM) (GIBCO, by Thermo Fischer Scientific, NY, USA) supplemented with 10% foetal bovine serum (FBS), 100 units/mL penicillin, and 100 µg streptomycin. SW620 and HFF-1 cells were cultured in Roswell Park Memorial Institute medium (RPMI-1640) (GIBCO, by Thermo scientific, NY, USA) supplemented with 10% FBS and 1% penicillin and streptomycin (Napolitano et al., 2015). All cultures were incubated at 37 °C and humidified atmosphere of 5% CO2.
(§2) The cytotoxicity effect of compounds on the colorectal cancer cell lines, HT29 and SW620 in addition to the normal human fibroblasts was measured by MTT (3–(4, 5-dimethylthiazol-2-yl)-2,5-diphenyltetrazolium bromide) (Sigma-Aldrich, St. Louis, MO, USA) as previously described. Briefly, cells were seeded in 96 well culture plates at 5000/well for HT29 and 10,000/well for SW620 for 24 h. Cells were then incubated with different compounds from WAG1 series (1–15) 24 h at 37 °C and humidified 5% CO2 incubator. Freshly prepared 10 µl of 3–(4,5-dimethylthiazol-2-yl)-2,5-diphenyltetrazolium bromide (MTT 5 mM) solution were added to the cells and further incubated for 2 h. Thereafter, 100 µl of dimethyl sulphoxide (DMSO) were added in each well and the crystals were dissolved through careful pipetting. In certain experiment, cells were treated different concentration of 5FU for 72 h. The absorbance of the product was measured at 540 nm using a Synergy™ 2 multi-mode microplate reader (Biotech, VA, USA). The experiments were performed in triplicate for each condition.

[2] = test system: SW-620 colorectal cancer cell line; experiment: MTT cell viability assay, SW-620 colorectal cancer cells; assay type: cell-based, human
Procedure: as §1, §2

[3] = test system: SW-620 cells; experiment: Annexin V-FITC/PI apoptosis assay (flow cytometry); assay type: cell-based, human; settings: 24 h
Procedure: Induction of apoptosis was measured by Dead Cell Apoptosis Kit with Annexin V FITC and PI, for flow cytometry (Thermofischer scientific, OR, USA) according to the manufacturer’s instruction. As described previously (39), cells were seeded in a 6-well plate (3 × 10^5 cells per well) and treated with the various compound for 24 h. Both floating and adherent cells were harvested, pooled together, and incubated with Annexin V-FITC and PI for 15 min on ice in dark. The cells were analysed by BD FACSCalibur™ cell analyser (BD Biosciences, CA, USA) at an emission of 530 nm (FL1 channel) and >575 nm (FL3).

[4] = test system: normal human skin fibroblast (HFF-1); experiment: MTT cell viability assay, normal fibroblast HFF-1; assay type: cell-based; settings: 24 h
Procedure: as §1
The cytotoxicity effect of compounds on the colorectal cancer cell lines, HT29 and SW620 in addition to the normal human fibroblasts was measured by MTT (3–(4, 5-dimethylthiazol-2-yl)-2,5-diphenyltetrazolium bromide) (Sigma-Aldrich, St. Louis, MO, USA) as previously described. Briefly, cells were seeded in 96 well culture plates at 5000/well for HT29 and 10,000/well for SW620 for 24 h. Cells were then incubated with different compounds from WAG1 series (1–15) 24 h at 37 °C and humidified 5% CO2 incubator. […] The absorbance of the product was measured at 540 nm using a Synergy™ 2 multi-mode microplate reader (Biotech, VA, USA). […]

[5] = test system: Bcl2; experiment: Western blot of Bcl2 protein expression in SW-620 cells; assay type: cell-based, human; settings: SW-620, two concentrations, 24 h, immunoblotting
Procedure: (§3) All cells were seeded in a 100 mm dish (1 × 10^6 cells per dish) in 5% CO2 at 37 °C in the appropriate culture medium. The cells with around 50% confluency were treated with compounds for 24 h. At the experiment day, cells were washed with 1x PBS, harvested and lysed in RIPA lysis buffer, combined with protease inhibitors, (Sigma-Aldrich, St. Louis, MO, USA) as described previously[39]). The total protein concentration was evaluated by the colorimetric Bradford protein assay (BIO-RAD inc, CA, USA) at 595 nm absorbance. Lysates were loaded in equal concentration and separated by sodium dodecyl sulfate-polyacrylamide gel electrophoresis (SDS-PAGE) and then transferred to a nitrocellulose membrane by semi-dry. Blocking of the membrane was done by 5% non-fat dried milk for one hour, incubated with the primary antibodies. The primary antibodies used were Bcl2 (cat. no. sc-7382), BclxL (cat. no. sc-8392) and β Actin (cat. no. sc-69879) from (Santa Cruz Biotechnology, Inc., Dallas, TX, USA). The secondary antibodies used were goat anti-mouse IgG-HRP (cat. no. sc-2005) and mouse anti-rabbit IgG-HRP (cat. no. sc-2357) from (Santa Cruz Biotechnology, Inc., Dallas, TX, USA). Detection was done with Luminol HRP chemiluminescence substrate (cat. no. sc-2048) from (Santa Cruz Biotechnology, Inc., Dallas, TX, USA) and then visualised by c-digit blot-scanner (LI-COR, Nebraska, USA).

[6] = test system: BclxL; experiment: Western blot of BclxL protein expression in SW-620 cells; assay type: cell-based, human; settings: SW-620, two concentrations, 24 h, immunoblotting
Procedure: as §3

[7] = Homo sapiens, HT-29, MTT, compounds 24 h (5FU 72 h), three separate experiments, read-out: IC50 (nM) HT-29
[8] = Homo sapiens, SW-620, MTT, compounds 24 h (5FU 72 h), three separate experiments, read-out: IC50 (nM) SW-620
[9] = MTT, compounds 24 h (5FU 72 h), three separate experiments, read-out: IC50 (nM) HT-29
[10] = MTT, compounds 24 h (5FU 72 h), three separate experiments, read-out: IC50 (nM) SW-620

Structure (SMILES) | IC50 [1, 7] | IC50 [2, 8] | melting point | further results
O=c1[nH]cc(F)c(=O)[nH]1 [Compound 5-FU, 5-Fluorouracil, reference compound] | 4600 nM | 1500 nM |  | IC50 ([1]; Homo sapiens, HT-29, 72 h, MTT, 5FU 72 h, read-out: IC50 against HT-29): 1500 nM; IC50 ([2]; Homo sapiens, SW-620, 72 h, MTT, 5FU 72 h, read-out: IC50 against SW-620): 4600 nM
O=C1Nc2ccccc2C1=NNC(=O)c1c[nH]c2ccccc12 [Compound 7a, N'-(2-Oxoindolin-3-ylidene)-1H-indole-3-carbohydrazide] | 408 nM | 145 nM | 259 to 261 °C | 
O=C1Nc2ccc(F)cc2C1=NNC(=O)c1c[nH]c2ccccc12 [Compound 7b, N'-(5-Fluoro-2-oxoindolin-3-ylidene)-1H-indole-3-carbohydrazide] | 611 nM | 175 nM | > 300 °C | 
O=C1Nc2ccc(Cl)cc2C1=NNC(=O)c1c[nH]c2ccccc12 [Compound 7c, N'-(5-Chloro-2-oxoindolin-3-ylidene)-1H-indole-3-carbohydrazide] | 188 nM | 206 nM |  | IC50 [1, 9]: 206 nM; fold total apoptosis increase compared to the control ([3]; SW-620, 250 nM): approximately 5.2 fold; fold total apoptosis increase compared to the control ([3]; SW-620, 500 nM): ~10.66 fold; effect on cell viability of HFF-1 [4]: no/or little effect; IC50 [2, 10]: 188 nM; Bcl2 protein expression [5]: dose-dependent inhibition; BclxL protein expression [6]: dose-dependent inhibition
O=C1Nc2ccc(Br)cc2C1=NNC(=O)c1c[nH]c2ccccc12 [Compound 7d, N'-(5-Bromo-2-oxoindolin-3-ylidene)-1H-indole-3-carbohydrazide] | 320 nM | 133 nM | 247 to 249 °C | 
Cc1ccc2c(c1)C(=NNC(=O)c1c[nH]c3ccccc13)C(=O)N2 [Compound 7e, N'-(5-Methyl-2-oxoindolin-3-ylidene)-1H-indole-3-carbohydrazide] | 335 nM | 253 nM | 201 to 203 °C | 
COc1ccc2c(c1)C(=NNC(=O)c1c[nH]c3ccccc13)C(=O)N2 [Compound 7f, N'-(5-Methoxy-2-oxoindolin-3-ylidene)-1H-indole-3-carbohydrazide] | 142 nM | 37 nM | 197 to 199 °C | 
O=C1Nc2ccc(OC(F)(F)F)cc2C1=NNC(=O)c1c[nH]c2ccccc12 [Compound 7g, N'-(2-Oxo-5-(trifluoromethoxy)indolin-3-ylidene)-1H-indole-3-carbohydrazide] | 279 nM | 299 nM |  | IC50 [1, 9]: 299 nM; fold total apoptosis increase compared to the control ([3]; SW-620, 250 nM): approximately 7.3 fold; fold total apoptosis increase compared to the control ([3]; SW-620, 500 nM): ~9.6 fold; effect on cell viability of HFF-1 [4]: no/or little effect; IC50 [2, 10]: 279 nM; Bcl2 protein expression [5]: inhibit; BclxL protein expression [6]: inhibit
O=C1Nc2ccc([N+](=O)[O-])cc2C1=NNC(=O)c1c[nH]c2ccccc12 [Compound 7h, N'-(5-Nitro-2-oxoindolin-3-ylidene)-1H-indole-3-carbohydrazide] | 132 nM | 190 nM | > 300 °C | fold more active than 5FU against HT-29 ([1]; ratio of IC50 values versus 5FU): approximately 35 fold
O=C1Nc2c(F)cccc2C1=NNC(=O)c1c[nH]c2ccccc12 [Compound 7i, N'-(7-Fluoro-2-oxoindolin-3-ylidene)-1H-indole-3-carbohydrazide] | 140 nM | 468 nM | > 300 °C | 
Cc1cc(C)c2c(c1)C(=NNC(=O)c1c[nH]c3ccccc13)C(=O)N2 [Compound 7j, N'-(5,7-Dimethyl-2-oxoindolin-3-ylidene)-1H-indole-3-carbohydrazide] | 200 nM | 187 nM | > 300 °C | 
CN1C(=O)C(=NNC(=O)c2c[nH]c3ccccc23)c2ccccc21 [Compound 9a, N'-(1-Methyl-2-oxoindolin-3-ylidene)-1H-indole-3-carbohydrazide] | 176 nM | 260 nM | 273 to 275 °C | 
CCCN1C(=O)C(=NNC(=O)c2c[nH]c3ccccc23)c2ccccc21 [Compound 9b, N'-(2-Oxo-1-propylindolin-3-ylidene)-1H-indole-3-carbohydrazide] | 525 nM | 105 nM | 248 to 250 °C | 
O=C(NN=C1C(=O)N(Cc2ccccc2)c2ccccc21)c1c[nH]c2ccccc12 [Compound 9c, N'-(1-Benzyl-2-oxoindolin-3-ylidene)-1H-indole-3-carbohydrazide] | 405 nM | 283 nM | 274 to 276 °C | 
CCCN1C(=O)C(=NNC(=O)c2c[nH]c3ccccc23)c2cc(Cl)ccc21 [Compound 9d, N'-(5-Chloro-2-oxo-1-propylindolin-3-ylidene)-1H-indole-3-carbohydrazide] | 166 nM | 290 nM | 262 to 263 °C | 
CCCN1C(=O)C(=NNC(=O)c2c[nH]c3ccccc23)c2cc(Br)ccc21 [Compound 9e, N'-(5-Bromo-2-oxo-1-propylindolin-3-ylidene)-1H-indole-3-carbohydrazide] | 290 nM | 414 nM | 255 to 256 °C | 
